Experimental data from PMC8225959, “Clickable Radiocomplexes With Trivalent Radiometals for Cancer Theranostics: In vitro and in vivo Studies” (Frontiers in Medicine, 2021).

Legend:
[1] = Biodistribution of [111In]In-radiocomplexes in healthy mice; format: in vivo
Description: We performed a biodistribution study of the four [^111In]In-radiocomplexes in healthy mice to determine the clearance rate from systemic blood circulation and the tissue/organ distribution over time. […] The urinary tract was identified as the main excretory pathway since the highest % I.D./g values were found in the kidneys for all the radiocomplexes, associated to rapid radioactivity excretion both at 15 min and 1 h p.i. […] page 9: from whole animal body. Blood samples were taken by cardiac puncture at sacrifice. […] The animals were kept under […] volume of approximate 390 ± 190 mm3. […] […] carried out on groups of 8 mice (n = 4). […] The animals were weighed and dissected.

[2] = In vivo stability: HPLC analysis of urine of injected mice; conditions: mouse urine, 1 h p.i.
Description: To assess the in vivo stability of the radiocomplexes, samples of blood and urine were collected from the mice injected with the compounds and analyzed by HPLC.
Blood samples from mice injected with the tested radiocomplexes, collected at sacrifice time, were
centrifuged, the serum separated and treated with ethanol (1:2 proportion) to precipitate the proteins
and the supernatant was analyzed by HPLC for stability evaluation. The urine samples were centrifuged
at 3000 rpm for 10 min and the supernatant was also analyzed by HPLC.

PC3 xenografts = experiment: In vivo click (pre-targeting) biodistribution of [111In]In-DOTA-Tz in PC3-xenografts bearing mice pretargeted with TCO-PEG4-AR; set-up: Biodistribution: Blood: dose or concentration left out as unconfirmed; conditions: 1 h p.i.
Description: from whole animal body. Blood samples were taken by cardiac puncture at sacrifice. Tissue samples
Biodistribution in PC3 bearing mice
Membrane Matrix (BD Sciences) under anaesthesia with 2% isoflurane. The animals were kept under
volume of approximate 390 ± 190 mm3. Animals were allocated into treatment groups using a complete
carried out on groups of 8 mice (n = 4).
At appropriate time points (15 min,
Immediately after injection,
DOTA-Tz (0.1mL, 50 – 75 µCi µCi).
assumed to be due to total excretion. The animals were weighed and dissected. Then, tissues of interest
radioactivity and weighted.

[3] = Lipophilicity, octanol-water partition coefficient by shake-flask method; format: physicochemical; conditions: 1-octanol / PBS pH 7.4
Description: Given the limited effect of the pegylated linker on the plasmatic half-life, we focused our successive in vitro stability studies and lipophilicity measurements on the two non-pegylated derivatives [^111In]In-DOTA-Tz and [^111In]In-DOTAGA-Tz. The lipophilicity was evaluated by determination of their partition coefficient log Po/w using the shake-flask method. […] In HS the stability was very good up to 2 h of incubation, but after 4 h of incubation, the degradation started to be quite important with 50 and 30% of the compound degraded for [^111In]In-DOTA-Tz and [^111In]In-DOTAGA-Tz, respectively. […] Taken together, excellent stability of the two [^111In]In-radiocomplexes was observed both in CCM and HS at 37°C for incubation times up to 2 h. […]
Lipophilicity Determination
After phase separation, aliquots

[4] = In vitro stability of [111In]In-radiocomplexes in cell culture media, human serum and PBS at 37 °C (HPLC); format: in vitro ADME; conditions: for stability in PBS: 24 h at 37°C; for level of degradation in CCM / stability in CCM: cell culture media; for level of degradation in CCM / stability in CCM / stability in HS / compound degraded in HS: 37°C; for level of degradation in CCM: after 24 h; for stability in CCM: first 4 h of incubation; for stability in HS / compound degraded in HS: human serum; for compound degraded in HS: after 4 h of incubation
Description: Given the limited effect of the pegylated linker on the plasmatic half-life, we focused our successive in vitro stability studies and lipophilicity measurements on the two non-pegylated derivatives [^111In]In-DOTA-Tz and [^111In]In-DOTAGA-Tz. The lipophilicity was evaluated by determination of their partition coefficient log Po/w using the shake-flask method. […] In HS the stability was very good up to 2 h of incubation, but after 4 h of incubation, the degradation started to be quite important with 50 and 30% of the compound degraded for [^111In]In-DOTA-Tz and [^111In]In-DOTAGA-Tz, respectively. […] Taken together, excellent stability of the two [^111In]In-radiocomplexes was observed both in CCM and HS at 37°C for incubation times up to 2 h.
[111In]In-Radiocomplexes: In vitro and in vivo stability
radiolabelled compound dissolved in different media. For the evaluation of the stability in PBS, Cell
times the volume of the desired medium.
The radiocomplexes incubated in Human
The urine samples were centrifuged
during six days by ITLC analysis.

[5] = In Vivo Click reaction: PC3 xenograft mice pretargeted with TCO-PEG4-AR (4 h prior administration, 1 nM)
[6] = In Vivo Click reaction: PC3 xenograft mice pretargeted with TCO-PEG4-AR (4 h prior administration, 1 nM), listed as [^111In]In-DOTA-Tz
[7] = in vivo click chemistry, pretargeted with TCO-PEG4-AR

O=C([O-])CN1CCN(CC(=O)[O-])CCN(CC(=O)NCCOCCOCCOCCOCCOCCOCCOCCOCCOCCOCCOCCNC(=O)CCCC(=O)NCc2ccc(-c3nncnn3)cc2)CCN(CC(=O)[O-])CC1.[111In+3] [[111In]In-DOTA-PEG-Tz]
Biodistribution: Blood ([1]; 15 min p.i.): 3.1 ± 0.4 % I.D./g
Biodistribution: Bone ([1]; 15 min p.i.): 0.78 ± 0.08 % I.D./g
Biodistribution: Heart ([1]; 15 min p.i.): 1.0 ± 0.2 % I.D./g
Biodistribution: Intestine ([1]; 15 min p.i.): 0.32 ± 0.05 % I.D./g
Biodistribution: Kidney ([1]; 15 min p.i.): 5.8 ± 1.3 % I.D./g
Biodistribution: Liver ([1]; 15 min p.i.): 1.1 ± 0.2 % I.D./g
Biodistribution: Lung ([1]; 15 min p.i.): 1.6 ± 0.3 % I.D./g
Biodistribution: Muscle ([1]; 15 min p.i.): 0.9 ± 0.2 % I.D./g
Biodistribution: Pancreas ([1]; 15 min p.i.): 0.53 ± 0.07 % I.D./g
Biodistribution: Spleen ([1]; 15 min p.i.): 0.66 ± 0.28 % I.D./g
Biodistribution: Stomach ([1]; 15 min p.i.): 0.5 ± 0.3 % I.D./g
Excretion ([1]; 15 min p.i.): 65.3 ± 5.4 % I.D.
Biodistribution: Blood ([1]; 1 h p.i.): 0.44 ± 0.07 % I.D./g
Biodistribution: Bone ([1]; 1 h p.i.): 0.11 ± 0.01 % I.D./g
Biodistribution: Heart ([1]; 1 h p.i.): 0.15 ± 0.08 % I.D./g
Biodistribution: Intestine ([1]; 1 h p.i.): 0.05 ± 0.01 % I.D./g
Biodistribution: Kidney ([1]; 1 h p.i.): 1.9 ± 0.3 % I.D./g
Biodistribution: Liver ([1]; 1 h p.i.): 0.70 ± 0.30 % I.D./g
Biodistribution: Lung ([1]; 1 h p.i.): 0.36 ± 0.04 % I.D./g
Biodistribution: Muscle ([1]; 1 h p.i.): 0.10 ± 0.02 % I.D./g
Biodistribution: Pancreas ([1]; 1 h p.i.): 0.09 ± 0.01 % I.D./g
Biodistribution: Spleen ([1]; 1 h p.i.): 0.18 ± 0.04 % I.D./g
Biodistribution: Stomach ([1]; 1 h p.i.): 0.09 ± 0.02 % I.D./g
Excretion ([1]; 1 h p.i.): 93.6 ± 0.8 % I.D.
Excretion ([1]; 1 h p.i., listed as [^111In]In-DOTA-PEG-Tz): above 90 % I.D.
in vivo stability / metabolization (urine HPLC) [2]: overall low degree of metabolization

O=C([O-])CN1CCN(CC(=O)[O-])CCN(CC(=O)NCc2ccc(-c3nncnn3)cc2)CCN(CC(=O)[O-])CC1.[111In+3] [[111In]In-DOTA-Tz]
Biodistribution: Blood ([1]; 15 min p.i.): 2.5 ± 1.4 % I.D./g
Biodistribution: Bone ([1]; 15 min p.i.): 1.0 ± 0.7 % I.D./g
Biodistribution: Heart ([1]; 15 min p.i.): 0.8 ± 0.5 % I.D./g
Biodistribution: Intestine ([1]; 15 min p.i.): 0.3 ± 0.2 % I.D./g
Biodistribution: Kidney ([1]; 15 min p.i.): 5.2 ± 3.3 % I.D./g
Biodistribution: Liver ([1]; 15 min p.i.): 2.3 ± 0.8 % I.D./g
Biodistribution: Lung ([1]; 15 min p.i.): 1.8 ± 0.9 % I.D./g
Biodistribution: Muscle ([1]; 15 min p.i.): 1.1 ± 0.9 % I.D./g
Biodistribution: Pancreas ([1]; 15 min p.i.): 0.4 ± 0.2 % I.D./g
Biodistribution: Spleen ([1]; 15 min p.i.): 0.8 ± 0.2 % I.D./g
Biodistribution: Stomach ([1]; 15 min p.i.): 0.3 ± 0.2 % I.D./g
Excretion ([1]; 15 min p.i.): 58.3 ± 25.3 % I.D.
Biodistribution: Blood ([1]; 1 h p.i.): 0.32 ± 0.07 % I.D./g
Biodistribution: Bone ([1]; 1 h p.i.): 0.12 ± 0.03 % I.D./g
Biodistribution: Heart ([1]; 1 h p.i.): 0.11 ± 0.02 % I.D./g
Biodistribution: Intestine ([1]; 1 h p.i.): 0.05 ± 0.01 % I.D./g
Biodistribution: Kidney ([1]; 1 h p.i.): 1.6 ± 0.3 % I.D./g
Biodistribution: Liver ([1]; 1 h p.i.): 0.29 ± 0.09 % I.D./g
Biodistribution: Lung ([1]; 1 h p.i.): 0.29 ± 0.03 % I.D./g
Biodistribution: Muscle ([1]; 1 h p.i.): 0.08 ± 0.01 % I.D./g
Biodistribution: Pancreas ([1]; 1 h p.i.): 0.06 ± 0.01 % I.D./g
Biodistribution: Spleen ([1]; 1 h p.i.): 0.09 ± 0.01 % I.D./g
Biodistribution: Stomach ([1]; 1 h p.i.): 0.09 ± 0.05 % I.D./g
Excretion ([1]; 1 h p.i.): 91.8 ± 1.0 % I.D.
Excretion ([1]; 1 h p.i., listed as [^111In]In-DOTA-Tz): above 90 % I.D.
Biodistribution: Blood (PC3 xenografts; In Vivo Click reaction: PC3 xenograft mice pretargeted with TCO-PEG4-AR (4 h prior administration)): 0.28 ± 0.09 % I.D./g
Biodistribution: Bone (PC3 xenografts; [5]): 0.21 ± 0.09 % I.D./g
Biodistribution: Heart (PC3 xenografts; [5]): 0.12 ± 0.04 % I.D./g
Biodistribution: Intestine (PC3 xenografts; [5]): 0.12 ± 0.04 % I.D./g
Biodistribution: Kidney (PC3 xenografts; [5]): 1.5 ± 0.3 % I.D./g
Biodistribution: Liver (PC3 xenografts; [5]): 0.3 ± 0.1 % I.D./g
Biodistribution: Lung (PC3 xenografts; [5]): 0.26 ± 0.06 % I.D./g
Biodistribution: Muscle (PC3 xenografts; [5]): 0.15 ± 0.11 % I.D./g
Biodistribution: Spleen (PC3 xenografts; [5]): 0.11 ± 0.04 % I.D./g
Biodistribution: Stomach (PC3 xenografts; [5]): 0.09 ± 0.06 % I.D./g
Biodistribution: Tumour (PC3 xenografts; [5]): 0.78 ± 0.54 % I.D./g
Biodistribution: Kidney (PC3 xenografts; [6]): 1.5 % I.D./g
Biodistribution: Tumour (PC3 xenografts; [6]): 0.78 % I.D./g
tumor/blood ratio (PC3 xenografts; [7]): 2.8
tumor/muscle ratio (PC3 xenografts; [7]): 5.2
log Po/w [3]: −1.60 ± 0.13
stability in PBS [4]: > 85%
level of degradation in CCM [4]: 70%
stability in CCM [4]: very good stability
stability in HS ([4]; 24 h of incubation): almost completely degraded
compound degraded in HS [4]: 50%
stability in HS ([4]; up to 2 h of incubation): very good
in vivo stability / metabolization (urine HPLC) [2]: eliminated without undergoing any metabolization or degradation

O=C([O-])CN1CCN(CC(=O)[O-])CCN(C(CCC(=O)NCc2ccc(-c3nncnn3)cc2)C(=O)[O-])CCN(CC(=O)[O-])CC1.[111In+3] (centres unmarked) [[111In]In-DOTAGA-Tz]
Biodistribution: Blood ([1]; 15 min p.i.): 3.2 ± 0.7 % I.D./g
Biodistribution: Bone ([1]; 15 min p.i.): 1.2 ± 0.2 % I.D./g
Biodistribution: Heart ([1]; 15 min p.i.): 0.9 ± 0.2 % I.D./g
Biodistribution: Intestine ([1]; 15 min p.i.): 0.4 ± 0.1 % I.D./g
Biodistribution: Kidney ([1]; 15 min p.i.): 7.2 ± 0.4 % I.D./g
Biodistribution: Liver ([1]; 15 min p.i.): 1.6 ± 0.4 % I.D./g
Biodistribution: Lung ([1]; 15 min p.i.): 1.9 ± 0.4 % I.D./g
Biodistribution: Muscle ([1]; 15 min p.i.): 0.9 ± 0.2 % I.D./g
Biodistribution: Pancreas ([1]; 15 min p.i.): 0.6 ± 0.1 % I.D./g
Biodistribution: Spleen ([1]; 15 min p.i.): 0.6 ± 0.1 % I.D./g
Biodistribution: Stomach ([1]; 15 min p.i.): 0.6 ± 0.3 % I.D./g
Excretion ([1]; 15 min p.i.): 62.7 ± 1.5 % I.D.
Biodistribution: Blood ([1]; 1 h p.i.): 1.1 ± 0.3 % I.D./g
Biodistribution: Bone ([1]; 1 h p.i.): 0.5 ± 0.1 % I.D./g
Biodistribution: Heart ([1]; 1 h p.i.): 0.4 ± 0.1 % I.D./g
Biodistribution: Intestine ([1]; 1 h p.i.): 0.26 ± 0.09 % I.D./g
Biodistribution: Kidney ([1]; 1 h p.i.): 3.6 ± 1.0 % I.D./g
Biodistribution: Liver ([1]; 1 h p.i.): 1.0 ± 0.3 % I.D./g
Biodistribution: Lung ([1]; 1 h p.i.): 0.8 ± 0.2 % I.D./g
Biodistribution: Muscle ([1]; 1 h p.i.): 0.27 ± 0.07 % I.D./g
Biodistribution: Pancreas ([1]; 1 h p.i.): 0.3 ± 0.1 % I.D./g
Biodistribution: Spleen ([1]; 1 h p.i.): 0.3 ± 0.1 % I.D./g
Biodistribution: Stomach ([1]; 1 h p.i.): 0.3 ± 0.2 % I.D./g
Excretion ([1]; 1 h p.i.): 81.5 ± 5.1 % I.D.
Biodistribution: Kidney ([1]; 1 h p.i., listed as [^111In]In-DOTAGA-Tz): 3.6 ± 1 % I.D./g
log Po/w [3]: −3.44 ± 0.29
stability in PBS [4]: > 85%
level of degradation in CCM [4]: 70%
stability in CCM [4]: very good stability
stability in HS ([4]; 24 h of incubation): almost completely degraded
compound degraded in HS [4]: 30%
stability in HS ([4]; up to 2 h of incubation): very good
in vivo stability / metabolization (urine HPLC) [2]: overall low degree of metabolization
